Data set [1] can be described thus: Solid-state stability of crystalline L-lactate salt forms (storage in air / 40° C. and 75% RH, XRPD). It counts as physicochemical. Particulars: solid L-lactate 1:1 salt of Compound (VIII); in air, or at 40° C. and 75% RH. The source says:
Samples for X-ray powder diffraction (XRPD) data collection were gently ground by marble mortar and loaded into a crystallographic capillary (from Hampton Research, Quartz or Glass Type 10, 0.4 or 0.7 mm diameter). Diffraction patterns were collected at room temperature using CuKα radiation (λ=1.5418 Å) from a Rigaku rotating anode RU3HR, Osmic blue confocal optics, ¼ c goniometer and a Rigaku HTC image plate detector. 2D images were collected while spinning φ axis with a detector to crystal distance of 250 mm. Data collection was controlled by CrystalClear software and 2D images were converted to 1D plot (2θ vs. Intensity) by Datasqueeze (intensity averaged over the azimuthal angle 0≦χ≦360° for 2θ range 3-30° in 0.02° steps). In house program AstexXRPD was used for manipulation and visualisation of 1D XRPD patterns.

For data set [2], the target named is T1, human Hsp90α N-terminal domain (Homo sapiens, UniProt P07900).
T1 construct: Cloning, expression, and purification of the Human Hsp90a N-terminal domain were performed according to published methods; made in house
Description: Isothermal titration calorimetry (ITC) binding to human Hsp90. The settings on record: 25 mM Tris, 100 mM NaCl, 1 mM MgCl2, 1 mM TCEP, 5% DMSO, pH 7.4. As for the experimental part: The ability of the compounds of the invention to bind to human Hsp90 proteins was determined using isothermal titration calorimetry.
Isothermal titration calorimetry (ITC) experiments were performed with a VP-ITC titration calorimeter (Microcal Inc., Northampton, Mass., USA). […] All solutions were filtered and degassed prior to a titration being carried out. The enthalpy change resulting from each injection of ligand was obtained through integration of the calorimetric signal. Data were analysed using Origin 7.0 (Microcal Software Inc., Northampton, Mass.). Heats of dilution were estimated using the final injections of each individual titration and subtracted before data fitting. Different ITC experimental formats were employed in order to obtain compound dissociation constants (Kd's) over a wide range of affinities. […] In this type of experiment the stoichiometry parameter (N) was locked at 1 for data fitting.

Structures are written as SMILES.

As for `CC(C)c1cc(C(=O)N2Cc3ccc(CN4CCN(C)CC4)cc3C2)c(O)cc1O.C[C@H](O)C(=O)O` [Form FL3, (2,4-dihydroxy-5-isopropyl-phenyl)-[5-(4-methyl-piperazin-1-ylmethyl)-1,3-dihydro-isoindol-2-yl]-methanone L-lactate salt], the “stability of crystalline form” value in data set [1] was “transforms in air into form FL1”.

Turning to `CC(C)c1cc(C(=O)N2Cc3ccc(CN4CCN(C)CC4)cc3C2)c(O)cc1O.C[C@H](O)C(=O)O` [form FL2, (2,4-dihydroxy-5-isopropyl-phenyl)-[5-(4-methyl-piperazin-1-ylmethyl)-1,3-dihydro-isoindol-2-yl]-methanone L-lactate salt], in data set [1], the “stability of crystalline form” value is given as “stable in air”.

In the case of `CC(C)c1cc(C(=O)N2Cc3ccc(CN4CCN(C)CC4)cc3C2)c(O)cc1O.C[C@H](O)C(=O)O` [Form FL1, (2,4-dihydroxy-5-isopropyl-phenyl)-[5-(4-methyl-piperazin-1-ylmethyl)-1,3-dihydro-isoindol-2-yl]-methanone L-lactate salt], in data set [1], the “stability of crystalline form” value is “stable in air and at 40 °C and 75% RH for at least one month”.

For the compound `CC(C)c1cc(C(=O)N2Cc3ccc(CN4CCN(C)CC4)cc3C2)c(O)cc1O` [Example 55, (2,4-dihydroxy-5-isopropyl-phenyl)-[5-(4-methyl-piperazin-1-ylmethyl)-1,3-dihydro-isoindol-2-yl]-methanone], in data set [2], the dissociation constant Kd is under 100 nM.

The values are drawn from patent publication US9730912B2, “Pharmaceutical compounds” (ASTEX THERAPEUTICS LIMITED, priority 2006, dated 2017).
